Experimental data taken from patent publication US5283180A, “Bioluminescence method for the determination of pesticides” (priority 1992, dated 1994).
Like-named read-outs stand apart in the source and are kept apart here.

Tests used:
[1] = tested on: Bee Brain Activity for Ac-luciferin (esterase activity of bee brain extract); assay type: biochemical, honey bees; settings: for % activity: bee brain extract; for I50 (concentration of inhibitor which gives a 50% decrease in enzymatic activity as measured by bioluminescence): bee brain, Ac-luciferin substrate, 5 min
Experimental: (§1) 1. Sample is preincubated with a predetermined quantity (dilution 1:200) of brain preparation for 5 minutes.
(§2) 2. Luciferin acetate (200 pmoles) is added to the incubation mixture for additional 5 minutes.
(§3) 3. A portion of this […] mixture (100 μl) is withdrawn and added to the luciferase and ATP reaction mixture (1 ml).
(§4) 4. Bioluminescence reading for 2-5 seconds is monitored.
(§5) 5. The reading of the pesticide sample is compared to the control sample to quantitate the percent inhibition of the sample (see Tables 3, 4, 5 and 6) .
(§6) Insects are stored from at -20° C. or below. Insect heads are collected by dissection with a scalpel and placed in a 50 ml beaker containing approximately 15 ml ice cold 0.07M phosphate buffer, pH 7.0, containing 1 mM EDTA (ethylenediaminetetra acetic acid) and 1 μM phenylthiourea. The insect heads are gently homogenized at low speed in a Tekmar Tissumizer. Aliquots of this crude extract are transferred to microcentrifuge tubes and centrifuged. The supernatant is retained and applied to a sephadex G-25 column equilibrated with 0.07M phosphate buffer, pH 7.0, containing 1 mM EDTA and 1 μM phenylthiourea. Fractions are collected every 2 minutes and monitored for esterase activity using luciferin acetate as a substrate and measuring bioluminescence. Fractions with esterase activity are pooled and used as the insect head extract for use in the pesticide assay.
(§7) Notes: Brain extracts have been prepared primarily from honey bees, but also has been extracted from silkworm and blowflies. Protein concentration of the bee head extract is between 2 to 5 mg/ml. For the assay, 5 to 10 μl is used per assay.
(§8) 1. To 13×100 mm test tubes add 2 ml 0.07M phosphate buffer, pH 7.0. Add 25 μl positive pesticide control (organophosphate and/or carbamate pesticide), 25 μl water to negative control tube and 25 μl of test sample to another tube. If test sample contains solvent other than water, then use this solvent as the negative control tube.
(§9) 2. Add insert brain extract (5 or 10 μl depending on activity) to the 2 ml incubation mixture in step 1, vortex and incubate at 35° C. in temperature block for 10 minutes. Use timer with alarm to monitor time.
(§10) 3. At 10 minutes, add 25 μl 8.25 μM luciferin acetate solution to 2 ml incubation mixture in step 2. Reset timer to zero and restart timer.
(§11) 4. At 5 minutes, take 100 μl portion from each sample. Use separate pipette tip for each sample and add the 100 μl portion to separate 13×100 mm test tubes containing 1 ml of bioluminescence buffer.
(§12) 5. Add 30 μl ATP solution followed by 30 μl luciferase solution to one of the assay tubes in step 4. Vortex and measure bioluminescence for 2 to 5 seconds. Record value and proceed to the next tubes as above.
6. […] In the positive samples the esterolitic activity of the bee extract will be inhibited and less luciferin will form giving a low bioluminescent reading. Divide sample reading or positive control by zero control and multiply to 100 to get percent inhibition.

[2] = tested on: Silkworm Brain Activities; assay: Bioluminescence pesticide assay: inhibition of silkworm brain activities; assay type: biochemical; settings: pesticide at 25 PPB
Experimental: as §1, §2, §3, §4, §5, §6, §7, §8, §9, §10, §11, §12
6. Zero control bioluminescence reaction will be uninhibited by pesticide and will have a high bioluminescence reading. In the positive samples the esterolitic activity of the bee extract will be inhibited and less luciferin will form giving a low bioluminescent reading. Divide sample reading or positive control by zero control and multiply to 100 to get percent inhibition.

SMILES	% activity ([1]; 12.5 ppb pesticide) [%]	% activity ([1]; 25 ppb pesticide) [%]	I50 (concentration of inhibitor which gives a 50% decrease in enzymatic activity as measured by bioluminescence) [1] [ppb]	% activity ([1]; 6.25 ppb pesticide) [%]	% activity ([1]; 0.625 ppb pesticide) [%]	% activity ([1]; 1.25 ppb pesticide) [%]	% activity ([1]; 2.5 ppb pesticide) [%]	% activity ([1]; 3.125 ppb pesticide) [%]	% Inhibition [2] [%]	other results
CNC(=O)Oc1cccc2c1OC(C)(C)O2 [Bendocarb]	50	26	12							% activity ([1]; 50 ppb pesticide): 18%; % activity ([1]; 100 ppb pesticide): 11%
CNC(=O)Oc1cccc2c1OC(C)(C)C2 [Carbofuran]	41	32	8	59						% activity ([1]; 50 ppb pesticide): 22%
CCOP(=S)(OCC)Oc1nc(Cl)c(Cl)cc1Cl [Chlorpyrifos]			1	10	68	34	24	13		
COP(=O)(OC)OC=C(Cl)Cl [DDVP]			0.004						100.0	% activity ([1]; 0.0013 ppb pesticide): 74%; % activity ([1]; 0.0023 ppb pesticide): 49%; % activity ([1]; 0.0028 ppb pesticide): 60%; % activity ([1]; 0.0057 ppb pesticide): 52%; % activity ([1]; 0.011 ppb pesticide): 25%
CCOP(=S)(OCC)Oc1cc(C)nc(C(C)C)n1 [Diazinon]		40	15						0	% activity ([1]; 100 ppb pesticide): 28%
CCOP(=S)(OCC)SCCSCC [Disulfoton]	35	19	5	47				66	25	
CCOP(=S)(OCC)SCSP(=S)(OCC)OCC [Ethion]			2		71	65	37		77.0	% activity ([1]; 0.3125 ppb pesticide): 84%
CCOC(=O)CC(SP(=S)(OC)OC)C(=O)OCC (stereo not shown) [Malathion]	50	27	6	53						% activity ([1]; 50 ppb pesticide): 27%
CNC(=O)ON=C(C)SC [Methomyl]	20	12	4	16				45		
COP(=S)(OC)Oc1ccc([N+](=O)[O-])cc1 [Methyl parathion]			1		62	40	23		0	
COC(=O)C=C(C)OP(=O)(OC)OC [Mevinphos]			2	9	52	48	24	12	50	% activity ([1]; 0.3125 ppb pesticide): 64%
COP(=O)(OC)OC(Br)C(Cl)(Cl)Br (stereo not shown) [Naled]			0.05		29				98.0	% activity ([1]; 0.031 ppb pesticide): 50%; % activity ([1]; 0.125 ppb pesticide): 30%; % activity ([1]; 0.250 ppb pesticide): 25%
CC[S+]([O-])CCSP(=O)(OC)OC (stereo not shown) [Oxydemeton-methyl]		21	1		43	47	37		0	% activity ([1]; 0.3125 ppb pesticide): 90%
CCOP(=S)(OCC)SCSCC [Phorate]	3		2	8		70	29	23	50.5	
CNC(=O)Oc1ccccc1OC(C)C [Propoxur]	43	44	10							% activity ([1]; 3.1 ppb pesticide): 62%; % activity ([1]; 62.5 ppb pesticide): 29%; % activity ([1]; 125.0 ppb pesticide): 27%
